{"source": "patent US8883718B2", "about": "“Treating cancer” (Theryte Limited, priority 2008, dated 2014)", "type_in_all_cases": "cell-based", "key": {"[1]": {"test_system": "normal diploid human keratinocytes", "test": "normal keratinocyte cultures exposed to THR53", "details": "200 μM", "description": "FIGS. 7(g), (h), (i,) and (j) show established cultures of H460 human non-small cell lung cancer cells (i, j) and normal diploid human keratinocytes (g, h) in the presence and absence of THR53. 10^4 tumor or keratinocyte cells were plated in 2.5 cm diameter tissue culture wells and 5 days later vehicle (g, i) or 200 μM THR53 (SEQ ID NO: 9) (h, j) were added. Further incubation was carried out for 7 days.\n(§1) In a clinical context this might provide a biomarker of therapeutic efficacy. […] Such a homogeneous therapeutic response is in marked contrast to the wide range of variability in dose response of different cancer cell lines seen with conventional chemotherapeutic agents^24. Cancer cells both underwent successful mitosis and died (FIG. 3f) or died in interphase (FIG. 7d). […] MRC-hTERT fibroblasts (FIG. 7c) and short term cultures of normal diploid human keratinocytes (FIG. 3h) were not killed by 200 μM THR53."}, "[2]": {"test_system": "MRC-hTERT immortalized normal human fibroblasts", "test": "MRC-hTERT fibroblasts exposed to THR53", "details": "200 μM", "description": "FIGS. 7(c), (d) and (e) show time lapse photomicrographs of H460 human non-small cell lung cancer cells and MRC-hTERT immortalized normal human fibroblasts growing in tissue culture following exposure to 200 μM THR53 (SEQ ID NO: 9) (d, e) and untreated control H460 cells (c). Magnification ×10.\nas §1"}, "[3]": {"test_system": "H460 human non-small cell lung cancer cells", "test": "clonogenic assay on H460 cells", "description": "The first experiments were carried out on cyc-[[…]] (THR 53, (SEQ ID NO: 9)), see FIG. 4. Whilst the 96 well assays described in Example 3 are suitable for initial screening of small amounts of peptide material the long incubation periods in dense culture do themselves compromise cell viability to some extent. […] In clonogenic assays, (previously described by Warenius et al Br J Cancer (2000) 83(8), 1048-1059) single cell suspensions of 100 cells are plated in plentiful volumes of 2 ml of Ham's F12 tissue culture medium supplemented with 10% FCS and incubated for 15, 20 or 25 days. A high percentage of the plated cells (40-60% in the case of H460) go through repeated doublings to yield colonies of 200 or more cells which can be easily visualized by the naked eye and counted under a low power lens when stained by giemsa stain.\nThe efficacy of THR53 was compared to Ac-PRGPRP-NH2 (SEQ ID NO: 2) using a clonogenic assay."}, "[4]": {"test_system": "Eleven human cancer cell lines covering a wide range of histologies", "test": "eleven human cancer cell lines exposed to THR53 (morphology and clonogenic assays)", "details": "200 μM", "description": "as §1"}}, "note": "“Also recorded” adds a separate entry of the source. Where a SMILES comes first, the peptide text is derived from it."}
{"smiles": "CC(C)C[C@@H]1NC(=O)[C@H](C)NC(=O)[C@H](CC(C)C)NC(=O)[C@H](CCCCN)NC(=O)[C@H](C(C)C)NC(=O)[C@@H]2CCCN2C(=O)[C@H](CCCNC(=N)N)NC(=O)[C@@H]2CCCN2C(=O)CNC(=O)[C@H](CCCNC(=N)N)NC(=O)[C@@H]2CCCN2C(=O)[C@@H]2CCCN2C(=O)[C@H](Cc2ccccc2)NC(=O)[C@H](CCCCN)NC(=O)[C@H](CC(C)C)NC(=O)[C@H](C)NC(=O)[C@H](CC(C)C)NC(=O)[C@H](CCCCN)NC1=O", "note": "[THR53] (cyclo(ALKFPPRGPRPVKLALKL))", "values": [{"measurement": "killing of normal diploid human keratinocytes in short term culture", "setting": "[1]", "result": "not killed"}, {"measurement": "killing of MRC-hTERT fibroblasts", "setting": "[2]", "result": "not killed"}, {"measurement": "lethality on H460 non-small cell lung cancer cells", "setting": "[3]; 100 uM, no colonies visible", "result": 100, "unit": "%"}, {"measurement": "H460 cell survival in clonogenic assay", "setting": "[3]; drug concentrations 10 to 100 μM", "result": "significantly decreased"}, {"measurement": "mode of cancer cell death", "setting": "[4]", "result": "no features of apoptosis"}, {"measurement": "response / lethality in clonogenic assays", "setting": "[4]; 15 days after exposure, eleven human cancer cell lines", "result": "complete lethality; also recorded: complete response"}]}
